Test system: tobacco budworm (Heliothis virescens [Fabricius])
Test: surface-treated diet test against tobacco budworm
Assay type: in vivo
Conditions: for Percent Growth Inhibition: inhibition of insect weight relative to untreated controls
Protocol: Candidate insecticides were evaluated for activity against the tobacco budworm (Heliothis virescens [Fabricius]) in a surface-treated diet test.
In this test one mL of molten (65-70° C.) wheat germ-based artificial diet was pipetted into each well of a four by six (24 well) multi-well plate (ID# 430345-15.5 mm dia.×17.6 mm deep; Corning Costar Corp., One Alewife Center, Cambridge, Mass. 02140). The diet was allowed to cool to ambient temperature before treatment with candidate insecticide.
For a determination of insecticidal activity, solutions of the candidate insecticides were prepared for testing using a Packard 204DT Multiprobe® Robotic System (Packard Instrument Company, 800 Research Parkway, Meriden, Conn. 06450), in which the robot first diluted a standard 50 millimolar DMSO solution of candidate insecticide with a 1:1 water/acetone solution (V/V) in a ratio of 1:7 stock solution to water/acetone. The robot subsequently pipetted 40 microliters of the so-prepared solution onto the surface of the diet in each of three wells in the 24 multi-well plate. The process was repeated with solutions of seven other candidate insecticides. Once treated, the contents of the multi-well plate were allowed to dry, leaving 0.25 millimoles of candidate insecticide on the surface of the diet, or a concentration of 0.25 millimolar. Appropriate untreated controls containing only DMSO on the diet surface were also included in this test.
For evaluations of the insecticidal activity of a candidate insecticide at varying rates of application, the test was established as described above using sub-multiples of the standard 50 millimolar DMSO solution of candidate insecticide. For example, the standard 50 millimolar solution was diluted by the robot with DMSO to give 5, 0.5, 0.05, 0.005, 0.0005 millimolar, or more dilute solutions of the candidate insecticide. In these evaluations there were six replicates of each rate of application placed on the surface of the diet in the 24 multi-well plate, for a total of four rates of application of candidate insecticide in each plate.
In each well of the test plate was placed one second instar tobacco budworm larvae, each weighing approximately five milligrams. After the larvae were placed in each well, the plate was sealed with clear polyfilm adhesive tape. The tape over each well was perforated to ensure an adequate air supply. The plates were then held in a growth chamber at 25° C. and 60% relative humidity for five days (light 14 hours/day).
After the five-day exposure period insecticidal activity for each rate of application of candidate insecticide was assessed as percent inhibition of insect weight relative to the weight of insects from untreated controls, and percent mortality when compared to the total number of insects infested.
The test compounds of formula I are identified by numbers that correspond to those in Table 1.

[1] = 0.25 millimolar on the surface of the diet, second instar larvae, five-day exposure, compared to the total number of insects infested
[2] = 0.25 millimolar on the surface of the diet, second instar larvae, five-day exposure

Compound | Percent Mortality [1] | Percent Growth Inhibition [2] | Percent Mortality (in vivo)
C=CCOCC1COC(c2ccc(CN3CCC(C(O)(c4ccc(OC(F)(F)F)cc4)c4ccc(OC(F)(F)F)cc4)CC3)cc2)O1 (centres unmarked) [Compound 91] | 100% | 100% | –
OC(c1ccc(OC(F)(F)F)cc1)(c1ccc(OC(F)(F)F)cc1)C1CCN(Cc2ccc(C3OCC4(CC4)CO3)cc2)CC1 [Compound 45] | 100% | 100% | –
[O-][N+]1(Cc2ccc(C3OCC(CN4CCCC4)O3)cc2)CCC(C(O)(c2ccc(OC(F)(F)F)cc2)c2ccc(OC(F)(F)F)cc2)CC1 (centres unmarked) [Compound 110] | 100% | 100% | –
[O-][N+]1(Cc2ccc(C3OCC(c4ccccc4)O3)cc2)CCC(C(O)(c2ccc(OC(F)(F)F)cc2)c2ccc(OC(F)(F)F)cc2)CC1 (centres unmarked) [Compound 60] | 100% | 100% | –
OC(c1ccc(OC(F)(F)F)cc1)(c1ccc(OC(F)(F)F)cc1)C1CCN(Cc2ccc(OCC3(c4ccccc4)OCCO3)cc2)CC1 [Compound 186] | 100% | 100% | –
CC1(C)CCOC(c2ccc(CN3CCC(C(O)(c4ccc(OC(F)(F)F)cc4)c4ccc(OC(F)(F)F)cc4)CC3)cc2)O1 (centres unmarked) [Compound 69] | 100% | 100% | –
COc1ccc(C2(COc3ccc(C[N+]4([O-])CCC(C(O)(c5ccc(OC(F)(F)F)cc5)c5ccc(OC(F)(F)F)cc5)CC4)cc3)OCCO2)cc1 (centres unmarked) [Compound 191] | 100% | 100% | –
OC(c1ccc(Cl)c(Cl)c1)(c1ccc(Cl)c(Cl)c1)C1CCN(Cc2ccc(C3OCCO3)cc2)CC1 [Compound 145] | 100% | 100% | –
OC(c1ccc(OC(F)(F)F)cc1)(c1ccc(OC(F)(F)F)cc1)C1CCN(Cc2ccc(C3OCCO3)cc2)CC1 [Compound 1] | – | 100% | 100%
CCC1COC(c2ccc(CN3CCC(C(O)(c4ccc(OC(F)(F)F)cc4)c4ccc(OC(F)(F)F)cc4)CC3)cc2)O1 (centres unmarked) [Compound 48] | 100% | 100% | –
[O-][N+]1(Cc2ccc(C3OCC(COc4ccccc4)O3)cc2)CCC(C(O)(c2ccc(OC(F)(F)F)cc2)c2ccc(OC(F)(F)F)cc2)CC1 (centres unmarked) [Compound 94] | 100% | 100% | –
CCCC1COC(c2ccc(C[N+]3([O-])CCC(C(O)(c4ccc(OC(F)(F)F)cc4)c4ccc(OC(F)(F)F)cc4)CC3)cc2)O1 (centres unmarked) [Compound 74] | 100% | 100% | –
[O-][N+]1(Cc2ccc(C3OCC=CCO3)cc2)CCC(C(O)(c2ccc(OC(F)(F)F)cc2)c2ccc(OC(F)(F)F)cc2)CC1 (centres unmarked) [Compound 63] | 100% | 100% | –
[O-][N+]1(Cc2ccc(C3O[C@@H]4CCCC[C@H]4O3)cc2)CCC(C(O)(c2ccc(OC(F)(F)F)cc2)c2ccc(OC(F)(F)F)cc2)CC1 (relative stereo) [Compound 128] | 100% | 100% | –
C=CC1COC(c2ccc(C[N+]3([O-])CCC(C(O)(c4ccc(OC(F)(F)F)cc4)c4ccc(OC(F)(F)F)cc4)CC3)cc2)O1 (centres unmarked) [Compound 86] | 100% | 100% | –
OC(c1ccc(OC(F)(F)F)cc1)(c1ccc(OC(F)(F)F)cc1)C1CCN(Cc2ccc(OCC3OCCO3)cc2)CC1 [Compound 187] | 100% | 100% | –
[O-][N+]1(Cc2ccc(C3OCCO3)c(Cl)c2)CCC(C(O)(c2ccc(OC(F)(F)F)cc2)c2ccc(OC(F)(F)F)cc2)CC1 (centres unmarked) [Compound 181] | 100% | 100% | –
[O-][N+]1(Cc2ccc(C3OCCO3)c(C(F)(F)F)c2)CCC(C(O)(c2ccc(OC(F)(F)F)cc2)c2ccc(OC(F)(F)F)cc2)CC1 (centres unmarked) [Compound 182] | 100% | 100% | –
COCC1COC(COc2ccc(CN3CCC(C(O)(c4ccc(OC(F)(F)F)cc4)c4ccc(OC(F)(F)F)cc4)CC3)cc2)O1 (centres unmarked) [Compound 195] | 100% | 100% | –

Compound | Percent Mortality [1] | Percent Growth Inhibition [2] | Percent Mortality (in vivo)
OC(c1ccc(OC(F)(F)F)cc1)(c1ccc(OC(F)(F)F)cc1)C1CCN(Cc2ccc(OCC3OCCCO3)cc2)CC1 [Compound 199, bis[4-(trifluoromethoxy)-phenyl](1-{[4-(1,3-dioxan-2-ylmethoxy)phenyl]methyl}(4-piperidyl))methan-1-ol] | 100% | 100% | –
CC1(C)OCC(c2ccc(CN3CCC(C(O)(c4ccc(OC(F)(F)F)cc4)c4ccc(OC(F)(F)F)cc4)CC3)cc2)O1 (centres unmarked) [Compound 76] | 100% | 100% | –
CC1(C)OCC(COc2ccc(C[N+]3([O-])CCC(C(O)(c4ccc(OC(F)(F)F)cc4)c4ccc(OC(F)(F)F)cc4)CC3)cc2)O1 (centres unmarked) [Compound 190, bis[4-(trifluoromethoxy)phenyl][1-({4-[(2,2-dimethyl-(1,3-dioxolan-4-yl))methoxy]phenyl}methyl)(4-piperidyl)]methan-1-ol, N-oxide] | 100% | 100% | –
[O-][N+]1(Cc2ccc(C3O[C@H]4COC[C@H]4O3)cc2)CCC(C(O)(c2ccc(OC(F)(F)F)cc2)c2ccc(OC(F)(F)F)cc2)CC1 (some centres unmarked) [Compound 118] | 100% | 100% | –
OC(c1ccc(OC(F)(F)F)cc1)(c1ccc(OC(F)(F)F)cc1)C1CCN(Cc2ccc(C3COCO3)cc2)CC1 (centres unmarked) [Compound 103] | 100% | 100% | –
OC(c1ccc(OC(F)(F)F)cc1)(c1ccc(OC(F)(F)F)cc1)C1CCN(Cc2ccc(C3OCC(CN4CCCC4)O3)cc2)CC1 (centres unmarked) [Compound 108] | 33% | 97% | –
CC1(c2ccc(CN3CCC(C(O)(c4ccc(OC(F)(F)F)cc4)c4ccc(OC(F)(F)F)cc4)CC3)cc2)OCCCO1 [Compound 11] | 100% | 100% | –
CC1CC(C)(C)OC(c2ccc(CN3CCC(C(O)(c4ccc(OC(F)(F)F)cc4)c4ccc(OC(F)(F)F)cc4)CC3)cc2)O1 (centres unmarked) [Compound 78] | 100% | 100% | –
bis(4-trifluoromethoxyphenyl])(1-{[4-(1,3-dioxan-2-ylmethoxy)phenyl]methyl}(4-piperidyl))methan-1-ol, N-oxide [Compound 200] | 100% | 100% | –
CC1COC(c2ccc(CN3CCC(C(c4ccc(OC(F)(F)F)cc4)c4ccc(OC(F)(F)F)cc4)CC3)cc2)O1 (centres unmarked) [Compound 178] | 100% | 100% | –
C=CC1COC(c2ccc(CN3CCC(C(O)(c4ccc(OC(F)(F)F)cc4)c4ccc(OC(F)(F)F)cc4)CC3)cc2)O1 (centres unmarked) [Compound 52] | 100% | 100% | –
COC(=O)N1CCSC1c1ccc(CN2CCC(C(O)(c3ccc(OC(F)(F)F)cc3)c3ccc(OC(F)(F)F)cc3)CC2)cc1 (centres unmarked) [Compound 89] | 100% | 100% | –
[O-][N+]1(Cc2ccc(C3OCCCCO3)cc2)CCC(C(O)(c2ccc(OC(F)(F)F)cc2)c2ccc(OC(F)(F)F)cc2)CC1 (centres unmarked) [Compound 7] | 100% | 100% | –
OC(c1ccc(OC(F)(F)F)cc1)(c1ccc(OC(F)(F)F)cc1)C1CCN(Cc2ccc(C3OCC(COc4ccccc4)O3)cc2)CC1 (centres unmarked) [Compound 92] | 100% | 100% | –
OC(c1ccc(OC(F)(F)F)cc1)(c1ccc(OC(F)(F)F)cc1)C1CCN(Cc2ccc(C3O[C@H]4CCCC[C@H]4O3)cc2)CC1 (some centres unmarked) [Compound 115] | 100% | 100% | –
OC(c1ccc(OC(F)(F)F)cc1)(c1ccc(OC(F)(F)F)cc1)C1CCN(Cc2ccc(C3OCCO3)c(Cl)c2)CC1 [Compound 171] | 100% | 100% | –
C[C@H]1OC(c2ccc(CN3CCC(C(O)(c4ccc(OC(F)(F)F)cc4)c4ccc(OC(F)(F)F)cc4)CC3)cc2)O[C@@H]1C (relative stereo) [Compound 120] | 100% | 100% | –
[O-][N+]1(Cc2ccc(C3(COc4ccccc4)OCCO3)cc2)CCC(C(O)(c2ccc(OC(F)(F)F)cc2)c2ccc(OC(F)(F)F)cc2)CC1 (centres unmarked) [Compound 67] | 100% | 100% | –
